Measurements: patent US10420734B2, “Method of treating cancer using selective estrogen receptor modulators” (Duke University, priority 2014, dated 2019)

Experiments:
ESR1 = molecular target: T1, ESR1 (Homo sapiens, UniProt P03372); assay: ESR1 expression in MCF7 cells (immunoblot, mRNA, MG132 pre-treatment); assay type: cell-based
T1 sequence (P03372 1-595): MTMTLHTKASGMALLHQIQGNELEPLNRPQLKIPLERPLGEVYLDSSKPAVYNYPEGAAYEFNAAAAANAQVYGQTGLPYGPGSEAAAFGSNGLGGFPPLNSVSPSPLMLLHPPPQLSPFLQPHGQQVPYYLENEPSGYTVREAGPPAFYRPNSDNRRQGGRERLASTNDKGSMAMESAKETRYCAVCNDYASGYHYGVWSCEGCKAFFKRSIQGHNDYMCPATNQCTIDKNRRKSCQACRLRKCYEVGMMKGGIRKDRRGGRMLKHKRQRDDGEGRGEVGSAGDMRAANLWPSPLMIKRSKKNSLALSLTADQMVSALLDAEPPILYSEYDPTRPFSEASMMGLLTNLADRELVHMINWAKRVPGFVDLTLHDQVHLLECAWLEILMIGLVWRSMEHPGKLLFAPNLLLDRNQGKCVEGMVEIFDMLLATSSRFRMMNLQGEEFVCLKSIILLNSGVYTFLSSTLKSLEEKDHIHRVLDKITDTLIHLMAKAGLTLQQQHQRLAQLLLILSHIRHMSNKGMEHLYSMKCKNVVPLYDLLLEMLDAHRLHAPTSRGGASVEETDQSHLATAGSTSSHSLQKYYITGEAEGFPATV
Method: Protein expression was analyzed as described (Wittmann et al., (2007) Cancer Res 67 (19):9549-9560) using antibodies purchased from Sigma-Aldrich—A5441 (β-actin) and Santa Cruz Biotechnology—sc-6259 (cytokeratin 18), sc-20680 (lamin A), sc-5546 (α-tubulin) and sc-8005 (ESR1).
Expression of ESR1 and loading control cytokeratin 18 (CK18—FIG. 7A) in whole cell extracts were detected by immunoblot (top). ESR1 levels relative to CK18 were quantitated by densitometry using Adobe Photoshop (bottom). […] ESR1 expression was detected as in FIG. 6A. For FIGS. 6C-6D, LTED MCF7 cells were plated in phenol red free media supplemented with FBS that was stripped of growth factors twice using charcoal. For FIG. 6C, after 48 hours, cells were treated for 24 hours with E2 (10^−7 M) or SERDs (10^−6 M) and ESR1 was analyzed as in FIG. 6A.

MCF7 xenograft tumors = assay: MCF7 xenograft tumor study in estrogen-treated ovariectomized nu/nu mice; assay type: in vivo; conditions: 20 mg/kg sc daily
Method: A total of 90 female Nu/Nu mice were ovariectomized and implanted subcutaneous simultaneously with an estrogen pellet (Innovative Research of America) releasing 0.72 mg estradiol (E2) over 60 days. 2 days later an approximately 6 mm^3 fragment of an MCF7 xenograft tumor (isolated from a recently sacrificed estrogen treated nu/nu mouse) was inserted subcutaneous into the axial mammary gland. Tumor growth (by caliper measurement) and animal body weight were monitored 3× weekly until tumor volume reached ˜0.2 cm^3. […] Treatments were formulated in sterile corn oil and were administered daily by subcutaneous injection. After 3 weeks of treatments, animals were euthanized and serum and tissues saved for analysis. FIG. 1B depicts tumor volume analyzed using non-linear curve fit and exponential growth calculation (Graphpad Prism), followed by two-way ANOVA and Bonferroni analysis.
Xenograft tumor analysis: Estrogen-stimulated MCF7 tumors were initiated in the axial mammary gland of 6-week old estrogen-treated (0.72 mg/60 days pellet sc, Innovative Research of America) ovariectomized female NU/NU mice (in-house colony) by serial transfer and were measured as described (Wardell et al., (2013) Clin Cancer Res 19 (9):2420-2431). […] Animal tissues were processed and analyzed as described (Wardell et al., (2013) Clin Cancer Res 19 (9):2420-2431).
The ability of RAD1901 (FIG. 5A) to modulate the […] estradiol (E2) dependent transcriptional activity of the human estrogen receptor alpha (ESR1) and human estrogen receptor beta (ESR2) was assessed in transiently transfected SKBR3 cells using a synthetic reporter gene. […] DNA content as assessed by fluorescence was measured as a surrogate for cell proliferation. The relative increase in DNA fluorescence was calculated by normalizing to baseline values detected in a duplicate plate of cells that was harvested on day 1 prior to the initial treatment. […] For FIG. 5F, expression of ESR1 target genes in tumors was analyzed essentially as in (C).

SMILES: CCNCCc1ccc(CN(CC)c2cc(OC)ccc2[C@@H]2CCc3cc(O)ccc3C2)cc1 [RAD1901, (R)-6-{2-{ethyl[4-(2-ethylaminoethyl)benzyl]amino}-4-methoxyphenyl}-5,6,7,8-tetrahydronaphthalen-2-ol]
- ESR1 mRNA expression (ESR1): no effect
- ESR1 expression (immunoblot) (ESR1; 24 hours, RAD1901 10^-11-10^-5 M): significantly downregulated
- downregulation of ESR1 after pre-treatment with proteasome inhibitor MG132 (ESR1; MG132 1 hour pre-treatment, 6 hours ligand): completely blocked
- E2-stimulated growth of MCF7 tumors (MCF7 xenograft tumors): inhibited E2-stimulated growth of the tumors with efficacy similar to tamoxifen
- expression of ESR1-target genes PGR and FHL1 in treated tumors (MCF7 xenograft tumors): suppress the expression of the ESR1-target genes PGR and FHL1 to the same degree
